Each compound was assayed against LRRK2 G2019S (Homo sapiens, UniProt Q5S007, G2019S) (assay: LRRK2 G2019S Km ATP LanthaScreen assay). Conditions: read-out: LRRK2 pIC50 (converted).
Assay type: biochemical

LRRK2 G2019S, sequence (Q5S007 whole entry G2019S): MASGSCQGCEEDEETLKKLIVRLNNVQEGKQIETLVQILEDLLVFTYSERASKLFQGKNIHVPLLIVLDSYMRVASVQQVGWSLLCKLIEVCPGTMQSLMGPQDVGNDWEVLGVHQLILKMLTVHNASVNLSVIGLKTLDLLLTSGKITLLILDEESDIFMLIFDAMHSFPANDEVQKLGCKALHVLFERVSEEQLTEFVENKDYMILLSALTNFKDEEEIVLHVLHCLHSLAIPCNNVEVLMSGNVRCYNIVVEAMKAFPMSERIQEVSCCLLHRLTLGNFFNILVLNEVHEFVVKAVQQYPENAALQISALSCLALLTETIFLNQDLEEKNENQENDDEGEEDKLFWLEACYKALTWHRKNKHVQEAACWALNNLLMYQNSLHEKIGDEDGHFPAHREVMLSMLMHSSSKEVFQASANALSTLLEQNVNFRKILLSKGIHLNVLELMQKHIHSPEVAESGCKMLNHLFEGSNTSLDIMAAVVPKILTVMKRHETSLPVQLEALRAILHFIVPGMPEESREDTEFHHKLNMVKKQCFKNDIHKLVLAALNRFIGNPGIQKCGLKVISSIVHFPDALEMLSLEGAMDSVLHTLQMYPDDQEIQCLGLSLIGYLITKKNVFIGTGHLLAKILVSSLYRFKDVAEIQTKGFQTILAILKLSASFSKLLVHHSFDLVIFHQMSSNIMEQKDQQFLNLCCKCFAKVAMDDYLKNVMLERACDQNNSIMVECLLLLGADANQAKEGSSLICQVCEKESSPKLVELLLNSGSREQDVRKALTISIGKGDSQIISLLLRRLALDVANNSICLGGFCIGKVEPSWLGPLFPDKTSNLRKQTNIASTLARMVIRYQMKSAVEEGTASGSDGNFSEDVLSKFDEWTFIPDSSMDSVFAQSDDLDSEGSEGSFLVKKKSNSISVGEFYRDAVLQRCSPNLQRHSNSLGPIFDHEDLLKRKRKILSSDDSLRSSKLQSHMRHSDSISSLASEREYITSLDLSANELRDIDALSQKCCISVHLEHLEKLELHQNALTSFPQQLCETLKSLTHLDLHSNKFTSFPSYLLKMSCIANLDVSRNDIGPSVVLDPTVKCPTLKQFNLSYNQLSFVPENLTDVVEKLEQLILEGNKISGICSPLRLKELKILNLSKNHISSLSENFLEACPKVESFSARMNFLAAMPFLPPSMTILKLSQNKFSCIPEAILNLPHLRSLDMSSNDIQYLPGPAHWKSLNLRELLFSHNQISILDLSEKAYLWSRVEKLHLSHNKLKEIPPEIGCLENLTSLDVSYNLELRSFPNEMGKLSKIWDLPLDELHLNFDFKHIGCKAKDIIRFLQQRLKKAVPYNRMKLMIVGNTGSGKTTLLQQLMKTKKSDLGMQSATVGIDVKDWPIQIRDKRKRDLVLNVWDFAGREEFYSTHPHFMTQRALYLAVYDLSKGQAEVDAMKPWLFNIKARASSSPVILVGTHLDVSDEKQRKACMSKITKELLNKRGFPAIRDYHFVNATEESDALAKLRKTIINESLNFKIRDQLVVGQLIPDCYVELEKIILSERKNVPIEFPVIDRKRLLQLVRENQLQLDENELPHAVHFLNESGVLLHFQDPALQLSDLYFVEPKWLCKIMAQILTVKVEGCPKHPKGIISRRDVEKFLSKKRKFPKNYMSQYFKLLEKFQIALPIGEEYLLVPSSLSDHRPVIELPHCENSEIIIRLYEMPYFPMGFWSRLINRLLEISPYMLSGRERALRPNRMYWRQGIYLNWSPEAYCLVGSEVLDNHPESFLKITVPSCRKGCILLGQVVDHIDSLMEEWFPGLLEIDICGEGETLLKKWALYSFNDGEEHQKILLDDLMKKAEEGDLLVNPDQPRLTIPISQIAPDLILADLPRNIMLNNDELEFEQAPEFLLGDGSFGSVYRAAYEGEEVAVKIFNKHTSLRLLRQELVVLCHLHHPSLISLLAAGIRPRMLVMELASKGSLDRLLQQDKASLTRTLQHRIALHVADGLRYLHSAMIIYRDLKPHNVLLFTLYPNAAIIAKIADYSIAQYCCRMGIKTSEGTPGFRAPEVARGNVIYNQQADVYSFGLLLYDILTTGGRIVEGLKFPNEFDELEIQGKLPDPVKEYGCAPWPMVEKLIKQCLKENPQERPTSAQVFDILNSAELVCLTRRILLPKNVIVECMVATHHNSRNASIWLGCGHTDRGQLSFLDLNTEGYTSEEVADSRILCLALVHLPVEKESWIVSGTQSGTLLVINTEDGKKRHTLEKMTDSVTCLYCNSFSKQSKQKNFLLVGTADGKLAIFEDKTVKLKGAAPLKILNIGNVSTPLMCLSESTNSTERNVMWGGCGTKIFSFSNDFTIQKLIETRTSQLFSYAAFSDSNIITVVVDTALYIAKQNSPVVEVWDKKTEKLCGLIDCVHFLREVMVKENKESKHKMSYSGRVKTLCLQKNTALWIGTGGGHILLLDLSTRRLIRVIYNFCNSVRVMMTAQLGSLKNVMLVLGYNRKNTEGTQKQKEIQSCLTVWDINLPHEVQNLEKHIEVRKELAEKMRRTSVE

Row | IC50 | SMILES
1 | 1.35 nM | CC1(N2CCC(c3cc4cc(NC(=O)C5CC(F)(F)C5)ncc4cc3Cl)CC2)COCC1O (single isomer, unassigned) [Ex-1.18, N-(7-chloro-6-(1-((3R,4R or 3S,4S)-4-hydroxy-3-methyltetrahydrofuran-3-yl)piperidin-4-yl)isoquinolin-3-yl)-3,3-difluorocyclobutane-1-carboxamide]
2 | 41.7 nM | Cc1ccc(C2CC2C(=O)Nc2cc3cc(C4CCN(C5(C)COCC5O)CC4)c(Cl)cc3cn2)s1 (single isomer, unassigned) [Ex-4.57, N-(7-chloro-6-(1-(4-hydroxy-3-methyltetrahydrofuran-3-yl)piperidin-4-yl)isoquinolin-3-yl)-2-(5-methylthiophen-2-yl)cyclopropane-1-carboxamide]
3 | 9.12 nM | CCC1C(C(=O)Nc2cc3cc(C4CCC(N5CC(C)(F)C5)CC4)c(Cl)cc3cn2)C1c1cnn(C)c1 (single isomer, unassigned) [Ex-11.2, (1R,2R,3R) or (1R,2S,3R) or (1S,2R,3S) or (1S,2S,3S)-N-(7-chloro-6-((cis or trans)-4-(3-fluoro-3-methylazetidin-1-yl)cyclohexyl)isoquinolin-3-yl)-2-ethyl-3-(1-methyl-1H-pyrazol-4-yl)cyclopropane-1-carboxamide]
4 | 44.7 nM | COCC(C)c1cc2cc(NC(=O)C3CC34CCOCC4)ncc2cc1Cl (single isomer, unassigned) [Ex-9.11, N-(7-chloro-6-(1-methoxypropan-2-yl)isoquinolin-3-yl)-6-oxaspiro[2.5]octane-1-carboxamide]
5 | 89.1 nM | CC1(C)CC(C(=O)Nc2cc3cc(C4CCN(C5(C)COCC5F)CC4)c(Cl)cc3cn2)CCO1 (single isomer, unassigned) [Ex-6.39, N-(7-chloro-6-(1-(4-fluoro-3-methyltetrahydrofuran-3-yl)piperidin-4-yl)isoquinolin-3-yl)-2,2-dimethyltetrahydro-2H-pyran-4-carboxamide]
6 | 2.34 nM | Cn1cc(C2CC2C(=O)Nc2cc3cc(C4CC(N5CC(F)C5)C4)c(Cl)cc3cn2)cn1 (single isomer, unassigned) [Ex-5.26, N-(7-chloro-6-(3-(3-fluoroazetidin-1-yl)cyclobutyl)isoquinolin-3-yl)-2-(1-methyl-1H-pyrazol-4-yl)cyclopropane-1-carboxamide]
7 | 39.8 nM | N#CC1(c2ccc3cnc(NC(=O)C4CCN(CC(F)(F)F)C4)cc3c2)CC12CC2 (stereo not shown) [Ex-2.44]
8 | 21.9 nM | Cc1cc2cnc(NC(=O)C3CC3c3ccccn3)cc2cc1C1CCN(C2(C)COCC2F)CC1 (single isomer, unassigned) [Ex-13.4, (1R,2R or 1S,2S)-N-(6-(1-((3R,4R or 3S,4S)-4-fluoro-3-methyltetrahydrofuran-3-yl)piperidin-4-yl)-7-methylisoquinolin-3-yl)-2-(pyridin-2-yl)cyclopropane-1-carboxamide]
9 | 1.7 nM | COC1CN(C2CCC(c3cc4cc(NC(=O)C5CC56CCOCC6)ncc4cc3Cl)CC2)C1 (single isomer, unassigned) [Ex-11.4, N-(7-chloro-6-(4-(3-methoxyazetidin-1-yl)cyclohexyl)isoquinolin-3-yl)-6-oxaspiro[2.5]octane-1-carboxamide]
10 | 0.0813 nM | CC1(N2CCC(c3cc4cc(NC(=O)C5CC56CCOCC6)ncc4cc3Cl)CC2)COCC1F (single isomer, unassigned) [Ex-6.24, N-(7-chloro-6-(1-(4-fluoro-3-methyltetrahydrofuran-3-yl)piperidin-4-yl)isoquinolin-3-yl)-6-oxaspiro[2.5]octane-1-carboxamide]
11 | 0.661 nM | CC(C(=O)Nc1cc2cc(C3CCN(C4(C)CCOC4O)CC3)c(Cl)cc2cn1)C1CCOCC1 (stereo not shown) [Ex-2.104]
12 | 200 nM | CC1(N2CCC(c3cc4cc(NC(=O)C5CC5c5cccnc5)ncc4cc3Cl)CC2)COCC1O (single isomer, unassigned) [Ex-4.42, N-(7-chloro-6-(1-(4-hydroxy-3-methyltetrahydrofuran-3-yl)piperidin-4-yl)isoquinolin-3-yl)-2-(pyridin-3-yl)cyclopropane-1-carboxamide]
13 | 0.977 nM | CC1(N2CCC(c3cc4cc(NC(=O)Cn5cc(Cl)cn5)ncc4cc3Cl)CC2)COCC1O (stereo not shown) [Ex-3.9]
14 | 0.692 nM | CC1(N2CCC(c3cc4cc(NC(=O)C5CCC6(CCC6)OC5)ncc4cc3Cl)CC2)COCC1O (single isomer, unassigned) [Ex-4.24, N-(7-chloro-6-(1-(4-hydroxy-3-methyltetrahydrofuran-3-yl)piperidin-4-yl)isoquinolin-3-yl)-5-oxaspiro[3.5]nonane-7-carboxamide]
15 | 11.5 nM | CC(=O)Nc1cc2cc(C3CCN(C4COC4)CC3)c(Cl)cc2cn1 [Ex-7.1, N-(7-chloro-6-(1-(oxetan-3-yl)piperidin-4-yl)isoquinolin-3-yl)acetamide]
16 | 0.575 nM | Cn1cc(C2CC2C(=O)Nc2cc3cc(C4CC(N5CC(F)C5)C4)c(Cl)cc3cn2)cn1 (single isomer, unassigned) [Ex-5.25, N-(7-chloro-6-(3-(3-fluoroazetidin-1-yl)cyclobutyl)isoquinolin-3-yl)-2-(1-methyl-1H-pyrazol-4-yl)cyclopropane-1-carboxamide]
17 | 3020 nM | CC1(C)CCC(C(=O)Nc2cc3cc(C4CCC(N5CCC(F)C5)CC4)c(Cl)cc3cn2)CO1 (single isomer, unassigned) [Ex-5.23, N-(7-chloro-6-(4-(3-fluoropyrrolidin-1-yl)cyclohexyl)isoquinolin-3-yl)-6,6-dimethyltetrahydro-2H-pyran-3-carboxamide]

Row | IC50 | SMILES
18 | 0.0813 nM | Cn1cc(C2CC2C(=O)Nc2cc3cc(C4CCN(C5(C)COCC5O)CC4)c(Cl)cc3cn2)cn1 (stereo not shown) [Ex-2.37]
19 | 1.58 nM | Cn1cc(C2CC2C(=O)Nc2cc3cc(C4(C#N)CC45CC5)ccc3cn2)cn1 (single isomer, unassigned) [Ex-1.23, (1R,2R or 1S,2S)-N-(6-((R or S)-1-cyanospiro[2.2]pentan-1-yl)isoquinolin-3-yl)-2-(1-methyl-1H-pyrazol-4-yl)cyclopropane-1-carboxamide]
20 | 10.5 nM | N#CC1(c2ccc3cnc(NC(=O)C4CC(OC(F)F)C4)cc3c2)CC12CC2 (single isomer, unassigned) [Ex-2.7]
21 | 9.77 nM | CC1(C)CC(C(=O)Nc2cc3cc(C4(C#N)CC45CC5)ccc3cn2)CC(C)(C)O1 (single isomer, unassigned) [Ex-1.27, N-(6-((R or S)-1-cyanospiro[2.2]pentan-1-yl)isoquinolin-3-yl)-2,2,6,6-tetramethyltetrahydro-2H-pyran-4-carboxamide]
22 | 2.24 nM | CC1(C)CC(C(=O)Nc2cc3cc(C4CCC(N5CCC(F)C5)CC4)c(Cl)cc3cn2)CCO1 (single isomer, unassigned) [Ex-5.12, N-(7-chloro-6-(4-(3-fluoropyrrolidin-1-yl)cyclohexyl)isoquinolin-3-yl)-2,2-dimethyltetrahydro-2H-pyran-4-carboxamid]
23 | 3.55 nM | CC1(C)C(C(=O)Nc2cc3cc(C4CCN(C5(C)COCC5O)CC4)c(Cl)cc3cn2)C1c1ccccn1 (single isomer, unassigned) [Ex-4.46, N-(7-chloro-6-(1-(4-hydroxy-3-methyltetrahydrofuran-3-yl)piperidin-4-yl)isoquinolin-3-yl)-2,2-dimethyl-3-(pyridin-2-yl)cyclopropane-1-carboxamide]
24 | 26.3 nM | CC(CC#N)c1cc2cc(NC(=O)C3CC3c3ccccn3)ncc2cc1Cl (single isomer, unassigned) [Ex-9.21, N-(7-chloro-6-(1-cyanopropan-2-yl)isoquinolin-3-yl)-2-(pyridin-2-yl)cyclopropane-1-carboxamide]
25 | 1.35 nM | O=C(Nc1cc2cc(C3CCN(C4COC4)CC3)c(Cl)cc2cn1)C1CC12CCC2 (racemic) [Ex-1.14, Rac-N-(7-chloro-6-(1-(oxetan-3-yl)piperidin-4-yl)isoquinolin-3-yl)spiro[2.3]hexane-1-carboxamide]
26 | 1 nM | CC1(N2CCC(c3cc4cc(NC(=O)Cn5ccc(C(F)(F)F)n5)ncc4cc3Cl)CC2)COCC1O (stereo not shown) [Ex-3.10]
27 | 20.4 nM | N#CC1(c2ccc3cnc(NC(=O)[C@@H]4C[C@@H](O)[C@H](F)C4)cc3c2)CC12CC2 (single isomer, unassigned) [Ex-1.29, (1R,3R,4R)-N-(6-((R or S)-1-cyanospiro[2.2]pentan-1-yl)isoquinolin-3-yl)-3-fluoro-4-hydroxycyclopentane-1-carboxamide]
28 | 7.41 nM | Cc1cc2cnc(NC(=O)C3CCOC(C)(C)C3)cc2cc1C1CCN(C2(C)COCC2O)CC1 (stereo not shown) [Ex-2.50]
29 | 0.0813 nM | CC1(N2CCC(c3cc4cc(NC(=O)C5C6CCCOC65)ncc4cc3Cl)CC2)COCC1O (single isomer, unassigned) [Ex-4.14, N-(7-chloro-6-(1-(4-hydroxy-3-methyltetrahydrofuran-3-yl)piperidin-4-yl)isoquinolin-3-yl)-2-oxabicyclo[4.1.0]heptane-7-carboxamide]
30 | 5.89 nM | Cn1cc(C(=O)Nc2cc3cc(C4CCN(C5COC5)CC4)c(Cl)cc3cn2)cn1 [Ex-1.36, N-(7-chloro-6-(1-(oxetan-3-yl)piperidin-4-yl)isoquinolin-3-yl)-1-methyl-1H-pyrazole-4-carboxamide]
31 | 1.17 nM | CC1(N2CCC(c3cc4cc(NC(=O)C5CC56CCOC6)ncc4cc3Cl)CC2)COCC1F (single isomer, unassigned) [Ex-6.6, (R or S)-N-(7-chloro-6-(1-((3R,4R or 3S,4S)-4-fluoro-3-methyltetrahydrofuran-3-yl)piperidin-4-yl)isoquinolin-3-yl)-5-oxaspiro [2.4] heptane-1-carboxamide]
32 | 2.95 nM | CC(C(=O)Nc1cc2cc(C3(C#N)CC34CC4)ccc2cn1)c1cnn(C)c1 (stereo not shown) [Ex-2.108]
33 | 0.24 nM | CC1(N2CCC(c3cc4cc(NC(=O)Cc5ccccn5)ncc4cc3Cl)CC2)COCC1O (stereo not shown) [Ex-3.6]
34 | 9.12 nM | CC1C(C(=O)Nc2cc3cc(C4CCN(C5(C)COCC5O)CC4)c(Cl)cc3cn2)C1c1ccccn1 (single isomer, unassigned) [Ex-4.54, N-(7-chloro-6-(1-(4-hydroxy-3-methyltetrahydrofuran-3-yl)piperidin-4-yl)isoquinolin-3-yl)-2-methyl-3-(pyridin-2-yl)cyclopropane-1-carboxamide]

— US20240398784A1, “C-LINKED ISOQUINOLINE AMIDES AS LRRK2 INHIBITORS, PHARMACEUTICAL COMPOSITIONS, AND USES THEREOF” (Merck Sharp & Dohme LLC, priority 2021, published 2024)
